This assay has as its target T1, E1 and His-E2 Ubch10 (Homo sapiens, UniProt P22314).
T1 construct: host or cells: E. coli (His-Ubch10); Sf9 insect cells (E1)
T1 sequence (P22314 1-1058): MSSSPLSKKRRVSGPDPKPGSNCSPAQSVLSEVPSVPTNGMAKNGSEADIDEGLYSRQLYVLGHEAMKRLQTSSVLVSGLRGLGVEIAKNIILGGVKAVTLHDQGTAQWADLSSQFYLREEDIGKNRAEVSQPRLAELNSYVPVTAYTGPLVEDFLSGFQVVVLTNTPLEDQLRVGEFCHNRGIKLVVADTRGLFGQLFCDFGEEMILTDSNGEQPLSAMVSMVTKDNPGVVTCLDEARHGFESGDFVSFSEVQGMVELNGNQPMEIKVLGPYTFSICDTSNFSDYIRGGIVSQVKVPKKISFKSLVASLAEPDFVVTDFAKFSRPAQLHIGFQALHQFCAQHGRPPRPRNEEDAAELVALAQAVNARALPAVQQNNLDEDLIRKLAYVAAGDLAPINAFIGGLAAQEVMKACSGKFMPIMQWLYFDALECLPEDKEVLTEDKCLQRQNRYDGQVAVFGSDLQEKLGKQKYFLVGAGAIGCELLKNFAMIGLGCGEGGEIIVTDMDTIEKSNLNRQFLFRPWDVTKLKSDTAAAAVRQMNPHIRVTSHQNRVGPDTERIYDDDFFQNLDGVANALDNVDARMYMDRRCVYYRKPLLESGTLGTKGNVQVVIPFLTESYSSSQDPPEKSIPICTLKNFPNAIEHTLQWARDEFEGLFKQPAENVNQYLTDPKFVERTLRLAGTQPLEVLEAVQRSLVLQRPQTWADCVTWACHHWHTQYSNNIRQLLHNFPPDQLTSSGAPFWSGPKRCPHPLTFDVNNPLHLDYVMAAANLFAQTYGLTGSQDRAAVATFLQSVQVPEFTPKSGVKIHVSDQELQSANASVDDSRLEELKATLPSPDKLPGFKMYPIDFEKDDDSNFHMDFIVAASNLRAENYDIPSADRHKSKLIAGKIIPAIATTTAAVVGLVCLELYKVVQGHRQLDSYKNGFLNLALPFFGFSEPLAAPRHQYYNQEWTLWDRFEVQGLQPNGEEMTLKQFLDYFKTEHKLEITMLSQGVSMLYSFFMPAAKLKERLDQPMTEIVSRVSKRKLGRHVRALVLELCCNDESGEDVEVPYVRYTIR
Put plainly: E1 to E2 transfer assay, His-E2 Ubch10, 1.0 μM ATP (low ATP). In kind it is biochemical. The settings on record: Table 5, ATP inhibition properties; inhibition measured using IC50 values. In short, it runs like this: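 His-Ubch10 (20 ng/well), E1 (10 ng/well) and Flag-ubiquitin (100 ng) reacted 1 h at room temperature on nickel plates in 62.5 mM Tris pH 7.5, 0.75 mM DTT, 1.0 μM ATP with inhibitor. E2-ubiquitin complex detected by anti-Flag/HRP luminescence; IC50 determined.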
With `Cc1ccc(C(=O)Nc2nc3ccccc3s2)cc1` [Compound 84, N-(benzo[d]thiazol-2-yl)-4-methylbenzamide], the UBC10 result was “++ (++ indicates inhibition at 50 μM or or less)”.

As for `CCc1ccc(C(=O)Nc2nc3ccccc3s2)cc1` [Compound 85, N-(benzo[d]thiazol-2-yl)-4-ethylbenzamide], the UBC10 entry is “++ (++ indicates inhibition at 50 μM or or less)”.

For the compound `Nc1ccc(C(=O)Nc2nc3ccccc3s2)cc1` [Compound 86, 4-amino-N-(benzo[d]thiazol-2-yl)benzamide], the UBC10 entry was “−− (−− indicates marginal or no inhibition detected with this assay)”.

As for `COc1ccc2nc(NC(=O)c3ccco3)sc2c1` [Compound 87, N-(6-methoxybenzo[d]thiazol-2-yl)furan-2-carboxamide], the UBC10 entry was “++ (++ indicates inhibition at 50 μM or or less)”.

Consider `O=C(Nc1nc2ccccc2s1)c1ccco1` [Compound 88, N-(benzo[d]thiazol-2-yl)furan-2-carboxamide], for which the UBC10 result was “−− (−− indicates marginal or no inhibition detected with this assay)”.

`O=C(Nc1nc2ccccc2s1)c1cccs1` [Compound 89, N-(benzo[d]thiazol-2-yl)thiophene-2-carboxamide]: the UBC10 result is on record as “−− (−− indicates marginal or no inhibition detected with this assay)”.

Consider `CCOc1ccc2nc(NC(=O)c3ccc4c(c3)OCCO4)sc2c1` [Compound 90, N-(6-ethoxybenzo[d]thiazol-2-yl)-2,3-dihydrobenzo[b][1,4]dioxine-6-carboxamide], for which the UBC10 result was “++ (++ indicates inhibition at 50 μM or or less)”.

With `CCOc1ccc2nc(NC(=O)c3ccc(CC)cc3)sc2c1` [Compound 91, N-(6-ethoxybenzo[d]thiazol-2-yl)-4-ethylbenzamide], the UBC10 result is on record as “−− (−− indicates marginal or no inhibition detected with this assay)”.

Turning to `CCOc1ccc2nc(NC(=O)c3ccc(C)cc3)sc2c1` [Compound 92, N-(6-ethoxybenzo[d]thiazol-2-yl)-4-methylbenzamide], the UBC10 entry is listed as “−− (−− indicates marginal or no inhibition detected with this assay)”.

On to `CCOc1ccc2nc(NC(=O)c3ccc(C)c(C)c3)sc2c1` [Compound 93, N-(6-ethoxybenzo[d]thiazol-2-yl)-3,4-dimethylbenzamide], for which the UBC10 result is on record as “−− (−− indicates marginal or no inhibition detected with this assay)”.

For `CCOc1ccc2nc(NC(=O)c3ccc(NC(C)=O)cc3)sc2c1` [Compound 94, 4-acetamido-N-(6-ethoxybenzo[d]thiazol-2-yl)benzamide], the UBC10 result is “−− (−− indicates marginal or no inhibition detected with this assay)”.

As for `COc1ccc2nc(NC(=O)c3ccc(Cl)c(Cl)c3)sc2c1` [Compound 95, 3,4-dichloro-N-(6-methoxybenzo[d]thiazol-2-yl)benzamide], the UBC10 result is on record as “++ (++ indicates inhibition at 50 μM or or less)”.

With `CCOc1ccc2nc(NC(=O)c3ccc(Cl)c(Cl)c3)sc2c1` [Compound 96, 3,4-dichloro-N-(6-ethoxybenzo[d]thiazol-2-yl)benzamide], the UBC10 entry is “++ (++ indicates inhibition at 50 μM or or less)”.

Regarding `COc1ccc2nc(NC(=O)NC34CC5CC(CC(C5)C3)C4)sc2c1` [Compound 97, N-1-adamantyl-N′-(6-methoxy-1,3-benzothiazol-2-yl)urea], the UBC10 result is given as “++ (++ indicates inhibition at 50 μM or or less)”.

In the case of `COc1ccc2nc(NC(=O)Nc3ccccc3)sc2c1` [Compound 98, 1-(6-methoxybenzo[d]thiazol-2-yl)-3-phenylurea], the UBC10 result was “−− (−− indicates marginal or no inhibition detected with this assay)”.

For the compound `COc1ccc2nc(NC(=O)Nc3ccc(Cl)cc3)sc2c1` [Compound 99, 1-(4-chlorophenyl)-3-(6-methoxybenzo[d]thiazol-2-yl)urea], the UBC10 entry is “−− (−− indicates marginal or no inhibition detected with this assay)”.

As for `COc1ccc2nc(NC(=O)Nc3cccc(F)c3)sc2c1` [Compound 100, 1-(3-fluorophenyl)-3-(6-methoxybenzo[d]thiazol-2-yl)urea], the UBC10 entry is reported as “++ (++ indicates inhibition at 50 μM or or less)”.

Take `COc1ccc2nc(NC(=O)c3ccc(C)cc3C)sc2c1` [Compound 101, N-(6-methoxybenzo[d]thiazol-2-yl)-2,4-dimethyibenzamide]: the UBC10 entry was “++ (++ indicates inhibition at 50 μM or or less)”.

As for `COc1ccc2nc(NC(=O)c3sccc3C)sc2c1` [Compound 103, N-(6-methoxybenzo[d]thiazol-2-yl)-3-methylthiophene-2-carboxamide], the UBC10 result is “++ (++ indicates inhibition at 50 μM or or less)”.

As for `COc1ccc2nc(NC(=O)c3sccc3Cl)sc2c1` [Compound 104, 3-chloro-N-(6-methoxybenzo[d]thiazol-2-yl)thiophene-2-carboxamide], the UBC10 entry is “−− (−− indicates marginal or no inhibition detected with this assay)”.

With `COc1ccc(OC)c(NC(=O)Nc2nc3ccc(OC)cc3s2)c1` [Compound 120, 1-(2,5-dimethoxyphenyl)-3-(6-methoxybenzo[d]thiazol-2-yl)urea], the UBC10 entry is on record as “++ (++ indicates inhibition at 50 μM or or less)”.

Turning to `COc1ccc2nc(NC(=O)Nc3cccc(Cl)c3Cl)sc2c1` [Compound 124, 1-(2,3-dichlorophenyl)-3-(6-methoxybenzo[d]thiazol-2-yl)urea], the UBC10 entry is on record as “−− (−− indicates marginal or no inhibition detected with this assay)”.

On to `CCOC(=O)c1ccc(NC(=O)Nc2nc3ccc(OC)cc3s2)cc1` [Compound 126], for which the UBC10 entry is “−− (−− indicates marginal or no inhibition detected with this assay)”.

Regarding `CCOC(=O)c1ccc(NC(=O)Nc2nc3ccc(OCC)cc3s2)cc1` [Compound 136, ethyl 4-(3-(6-ethoxybenzo[d]thiazol-2-yl)ureido)benzoate], the UBC10 entry was “−− (−− indicates marginal or no inhibition detected with this assay)”.

On to `COc1ccc2nc(NC(=O)Nc3ccc(C#N)cc3)sc2c1` [Compound 137, 1-(4-cyanophenyl)-3-(6-methoxybenzo[d]thiazol-2-yl)urea], for which the UBC10 entry is “−− (−− indicates marginal or no inhibition detected with this assay)”.

`COc1ccc2nc(NC(=O)c3cccs3)sc2n1` [Compound 138, N-(5-methoxythiazolo[5,4-b]pyridin-2-yl)thiophene-2-carboxamide]: the UBC10 entry is given as “++ (++ indicates inhibition at 50 μM or or less)”.

In the case of `COc1ccc2nc(NC(=O)c3ccccc3)sc2n1` [Compound 139, N-(5-methoxythiazolo[5,4-b]pyridin-2-yl)benzamide], the UBC10 entry is given as “−− (−− indicates marginal or no inhibition detected with this assay)”.

`COc1ccc2nc(NC(=O)c3ccc(Cl)cc3Cl)sc2n1` [Compound 140, 2,4-dichloro-N-(5-methoxythiazolo[5,4-b]pyridin-2-yl)benzamide]: the UBC10 entry was “−− (−− indicates marginal or no inhibition detected with this assay)”.

Take `COc1ccc2nc(NC(=O)c3cccc(F)c3)sc2n1` [Compound 141, 3-fluoro-N-(5-methoxythiazolo[5,4-b]pyridin-2-yl)benzamide]: the UBC10 result was “++ (++ indicates inhibition at 50 μM or or less)”.

With `COc1ccc2nc(NC(=O)c3cccc(Cl)c3)sc2n1` [Compound 142, 3-chloro-N-(5-methoxythiazolo[5,4-b]pyridin-2-yl)benzamide], the UBC10 entry was “++ (++ indicates inhibition at 50 μM or or less)”.

With `COc1ccc2nc(NC(=O)c3sccc3Cl)sc2n1` [Compound 144, 3-chloro-N-(5-methoxythiazolo[5,4-b]pyridin-2-yl)thiophene-2-carboxamide], the UBC10 result is recorded as “−− (−− indicates marginal or no inhibition detected with this assay)”.

Turning to `COc1ccc2nc(NC(=O)c3c(F)cccc3F)sc2n1` [Compound 145, 2,6-difluoro-N-(5-methoxythiazolo[5,4-b]pyridin-2-yl)benzamide], the UBC10 entry is “−− (−− indicates marginal or no inhibition detected with this assay)”.

In the case of `COc1ccc2nc(NC(=O)c3ccc(F)c(F)c3)sc2n1` [Compound 146, 3,4-difluoro-N-(5-methoxythiazolo[5,4-b]pyridin-2-yl)benzamide], the UBC10 result is reported as “++ (++ indicates inhibition at 50 μM or or less)”.

Consider `COc1ccc2nc(NC(=O)c3ccc(C(F)(F)F)cc3)sc2n1` [Compound 147, N-(5-methoxythiazolo[5,4-b]pyridin-2-yl)-4-(trifluoromethyl)benzamide], for which the UBC10 entry is reported as “−− (−− indicates marginal or no inhibition detected with this assay)”.

For the origin of these results see patent publication US20080039629A1, “Benzothniazole compositions and their use as ubiquition ligation inhibitors” (RIGEL PHARMACEUTICALS, INC., priority 2003, published 2008).
